Laboratory results reported in patent US20230192661A1, “1, 4, 5, 6-TETRAHYDROPYRIMIDINE-2-AMINE DERIVATIVE” (UBE Corporation, priority 2020, published 2023).

Assays:
[1] = tested on: TGF-β activation (phosphorylated SMAD3); assay: TGF-β activation inhibition test (inhibition of SMAD3 phosphorylation in TFK-1 cells); format: cell-based; details: 48 h, fibronectin-coated plate, cultured 2 days, read-out: IC50 (rate of inhibition of phosphorylated SMAD3)
Description: In Test Example 3, the inhibition of TGF-β activation by a compound was detected with the inhibition of SMAD3 phosphorylation as an index. In Test Example 3, the same reagents as in Test Example 1 were used unless otherwise specified.
Human fibronectin was prepared at 14 μg/mL with PBS and then dispensed at 50 μL/well to a 96-well plate. The plate was left standing at room temperature for 1 hour or longer, followed by the removal of the fibronectin solution. The plate was washed with PBS and used as a coated plate.
A test compound dissolved in DMSO was added to RPMI medium 1640 (manufactured by Thermo Fisher Scientific, Inc., 11875) containing 1% FBS and 1% penicillin/streptomycin/amphotericin B to prepare a medium containing the test compound having a concentration of two times the final concentration. This medium was added at 100 μL/well to the coated plate. TFK-1 cells (Cell Resource Center for Biomedical Research, Institute of Development, Aging and Cancer, Tohoku University) cultured in RPMI medium 1640 containing 10% FBS and 1% penicillin/streptomycin/amphotericin B were suspended in RPMI medium 1640 containing 1% FBS and 1% penicillin/streptomycin/amphotericin B to prepare a cell suspension of 1×10^6 cells/mL. The prepared cell suspension was further added at 100 μL/well and cultured for 2 days in a 5% CO2 incubator (37° C.).
Phosphorylated SMAD3 in the cells thus cultured for 2 days was measured using Phospho-SMAD3 (Ser423/425) cellular kit (manufactured by cisbio, 63ADK025), and a DeltaF value was calculated according to the calculation expression of the kit. Inhibition when 10 μM LY364947 (FUJIFILM Wako Pure Chemical Corp., 123-05981) was added instead of the test compound was defined as 100% inhibition, and inhibition when DMSO was added instead was defined as 0% inhibition. The rate of inhibition of phosphorylated SMAD3 by the test compound was calculated according to the following expression.
Rate of inhibition of phosphorylated SMAD3 (%)=[1−{(DeltaF value in the case of adding the test compound)−(DeltaF value in the case of adding 10 μM LY364947)}/{(DeltaF value in the case of adding DMSO)−(DeltaF value in the case of adding 10 μM LY364947)}]×100
An IC50 value was calculated from the rate of inhibition of phosphorylated SMAD3 by the test compound. A: IC50<10 nM, B: 10 nM≤IC50<50 nM, C: 50 nM≤IC50<100 nM, or D: IC50≥100 nM.

[2] = Transcellular transport test using Caco2 cell; format: in vitro ADME; details: human, Caco-2; Caco2 monolayer, A-to-B, 10 μM compound, pH 7.4, 90 minutes
Description: Caco2 cells (purchased from ATCC) were cultured in DMEM medium (Thermo Fisher Scientific, Inc., 11965) containing 10% FBS (Thermo Fisher Scientific, Inc., 10082) and 1% penicillin/streptomycin/amphotericin B (Thermo Fisher Scientific, Inc., 15240). A transcellular transport test was carried out in accordance with MultiScreen Caco2 Drug Transport Assembly in a 96-well system (Application Note AN1727EN, MultiScreen Caco-2 Assay System, Merck) by partially modifying it. The Caco2 cells were inoculated at a cell density of 4×10^4 cells/well onto a micropore polycarbonate insert of a 96-well plate (Merck, Millcell-96 culture insert plate 0.4 μm pore size, well membrane area=0.11 cm^2, PSHT004S5) and cultured for 20 to 22 days, and the resulting monolayer was used in the transcellular transport test. The medium of the inoculated cells was replaced with a fresh one every 3 to 4 days.
Apical-to-basolateral (A-to-B) transport in the Caco2 cell monolayer membrane was performed by using HBSS (Thermo Fisher Scientific, Inc., 14025) medium (pH=7.4) containing 20 mM HEPES (Thermo Fisher Scientific, Inc., 15630), and adding HEPES-containing HBSS medium containing 10 μM compound (a 10 mM solution of the compound in DMSO was added at a 1000-fold dilution; final DMSO concentration: 0.1%) at 75 μL/well to the apical side and HEPES-containing HBSS medium supplemented with no compound at 250 μL/well to the basolateral side, followed by culture at 37° C. for 90 minutes. After culture, a 100 μL aliquot was collected from the basolateral side, and the concentration of a permeated compound was measured by LC-MS/MS under measurement conditions mentioned later. Papp (apparent permeability; cm/sec) was calculated from the determined concentration. Papp was determined according to the expression given below by calculating the slope (dA/dt; nmol/sec) of a straight line drawn between two points 0 minutes and zero amount of the compound in a graph plotted with an assay time (90 min) on the abscissa against the amount of the compound in the solution on the permeated side on the ordinate. As for an assay concentration, the concentration in the compound in the HEPES-containing HBSS medium containing the added compound was measured by UV-HPLC under measurement conditions mentioned later.
Papp (cm/sec)=C0×S×(dA/dt)
C0: assay concentration, S: plate membrane area=0.11 cm^2

SMILES	IC50 [1] [nM]	Papp A→B at 90 min, 10 μM [2] [×10⁻⁶ cm/s]
O=C(O)C[C@H](NC(=O)CNC(=O)c1cc(NC2=NCC(F)CN2)c2cn[nH]c2c1)c1cc(Cl)cc(C(F)(F)F)c1 (stereo partly drawn) [Example 1-(b), (3S)-3-(3-chloro-5-(trifluoromethyl)phenyl)-3-(2-(4-((5-fluoro-1,4,5,6-tetrahydropyrimidin-2-yl)amino)-1H-indazole-6-carboxamido)acetamido)propanoic acid]	< 10	> 1
O=C(O)C[C@H](NC(=O)CNC(=O)c1cc(NC2=NCC(F)CN2)c2cn[nH]c2c1)c1cc(Br)cc(C(F)(F)F)c1 (stereo partly drawn) [Example 2-(b), (3S)-3-(3-bromo-5-(trifluoromethyl)phenyl)-3-(2-(4-((5-fluoro-1,4,5,6-tetrahydropyrimidin-2-yl)amino)-1H-indazole-6-carboxamido)acetamido)propanoic acid]	< 10	0.5 to 1
O=C(O)C[C@H](NC(=O)CNC(=O)c1cc(NC2=NCC(F)CN2)c2cn[nH]c2c1)c1cc(I)cc(C(F)(F)F)c1 (stereo partly drawn) [Example 3-(b), (3S)-3-(2-(4-((5-fluoro-1,4,5,6-tetrahydropyrimidin-2-yl)amino)-1H-indazole-6-carboxamido)acetamido)-3-(3-iodo-5-(trifluoromethyl)phenyl)propanoic acid]	< 10	> 1
Cc1cc([C@H](CC(=O)O)NC(=O)CNC(=O)c2cc(NC3=NCC(F)CN3)c3cn[nH]c3c2)cc(C(F)(F)F)c1 (stereo partly drawn) [Example 4-(b), (3S)-3-(2-(4-((5-fluoro-1,4,5,6-tetrahydropyrimidin-2-yl)amino)-1H-indazole-6-carboxamido)acetamido)-3-(3-methyl-5-(trifluoromethyl)phenyl)propanoic acid]	< 10	> 1
COc1cc([C@H](CC(=O)O)NC(=O)CNC(=O)c2cc(NC3=NCC(F)CN3)c3cn[nH]c3c2)cc(C(F)(F)F)c1 (stereo partly drawn) [Example 5-(b), (3S)-3-(2-(4-((5-fluoro-1,4,5,6-tetrahydropyrimidin-2-yl)amino)-1H-indazole-6-carboxamido)acetamido)-3-(3-methoxy-5-(trifluoromethyl)phenyl)propanoic acid]	10 to 50	0.5 to 1
O=C(O)C[C@H](NC(=O)CNC(=O)c1cc(NC2=NCC(F)CN2)c2cn[nH]c2c1)c1cc(F)cc(C(F)(F)F)c1 (stereo partly drawn) [Example 6-(b), (3S)-3-(2-(4-((5-fluoro-1,4,5,6-tetrahydropyrimidin-2-yl)amino)-1H-indazole-6-carboxamido)acetamido)-3-(3-fluoro-5-(trifluoromethyl)phenyl)propanoic acid]	10 to 50	> 1
O=C(O)C[C@H](NC(=O)CNC(=O)c1cc(NC2=NCC(F)CN2)c2cn[nH]c2c1)c1cc(C(F)(F)F)cc(C(F)(F)F)c1 (stereo partly drawn) [Example 7-(b), (3S)-3-(3,5-bis(trifluoromethyl)phenyl)-3-(2-(4-((5-fluoro-1,4,5,6-tetrahydropyrimidin-2-yl)amino)-1H-indazole-6-carboxamido)acetamido)propanoic acid]	< 10	0.5 to 1
O=C(O)C[C@H](NC(=O)CNC(=O)c1cc(NC2=NCC(F)CN2)c2cn[nH]c2c1)c1cc(-n2cccn2)cc(C(F)(F)F)c1 (stereo partly drawn) [Example 8-(b), (3S)-3-(3-(1H-pyrazol-1-yl)-5-(trifluoromethyl)phenyl)-3-(2-(4-((5-fluoro-1,4,5,6-tetrahydropyrimidin-2-yl)amino)-1H-indazole-6-carboxamido)acetamido)propanoic acid]	< 10	0.5 to 1
O=C(O)C[C@H](NC(=O)CNC(=O)c1cc(NC2=NCC(F)CN2)c2cn[nH]c2c1)c1cccc(C(F)(F)F)c1F (stereo partly drawn) [Example 9-(b), (3S)-3-(2-(4-((5-fluoro-1,4,5,6-tetrahydropyrimidin-2-yl)amino)-1H-indazole-6-carboxamido)acetamido)-3-(2-fluoro-3-(trifluoromethyl)phenyl)propanoic acid]	50 to 100	> 1
O=C(O)C[C@H](NC(=O)CNC(=O)c1cc(NC2=NCC(F)CN2)c2cn[nH]c2c1)c1cccc(C(F)(F)F)c1Cl (stereo partly drawn) [Example 10-(b), (3S)-3-(2-chloro-3-(trifluoromethyl)phenyl)-3-(2-(4-((5-fluoro-1,4,5,6-tetrahydropyrimidin-2-yl)amino)-1H-indazole-6-carboxamido)acetamido)propanoic acid]	≥ 100	> 1
O=C(O)C[C@H](NC(=O)CNC(=O)c1cc(NC2=NCC(F)CN2)c2cn[nH]c2c1)c1cc(C(F)(F)F)ccc1F (stereo partly drawn) [Example 11-(b), (3S)-3-(2-(4-((5-fluoro-1,4,5,6-tetrahydropyrimidin-2-yl)amino)-1H-indazole-6-carboxamido)acetamido)-3-(2-fluoro-5-(trifluoromethyl)phenyl)propanoic acid]	< 10	> 1
O=C(O)C[C@H](NC(=O)CNC(=O)c1cc(NC2=NCC(F)CN2)c2cn[nH]c2c1)c1cc(C(F)(F)F)ccc1Cl (stereo partly drawn) [Example 12-(b), (3S)-3-(2-chloro-5-(trifluoromethyl)phenyl)-3-(2-(4-((5-fluoro-1,4,5,6-tetrahydropyrimidin-2-yl)amino)-1H-indazole-6-carboxamido)acetamido)propanoic acid]	≥ 100	> 1
O=C(O)C[C@H](NC(=O)CNC(=O)c1cc(NC2=NCC(F)CN2)c2cn[nH]c2c1)c1ccc(F)c(C(F)(F)F)c1 (stereo partly drawn) [Example 13-(b), (3S)-3-(2-(4-((5-fluoro-1,4,5,6-tetrahydropyrimidin-2-yl)amino)-1H-indazole-6-carboxamido)acetamido)-3-(4-fluoro-3-(trifluoromethyl)phenyl)propanoic acid]	10 to 50	> 1
Cc1ccc([C@H](CC(=O)O)NC(=O)CNC(=O)c2cc(NC3=NCC(F)CN3)c3cn[nH]c3c2)cc1C(F)(F)F (stereo partly drawn) [Example 14-(b), (3S)-3-(2-(4-((5-fluoro-1,4,5,6-tetrahydropyrimidin-2-yl)amino)-1H-indazole-6-carboxamido)acetamido)-3-(4-methyl-3-(trifluoromethyl)phenyl)propanoic acid]	< 10	> 1
O=C(O)C[C@H](NC(=O)CNC(=O)c1cc(NC2=NCC(F)CN2)c2cn[nH]c2c1)c1cc(Cl)c(F)c(C(F)(F)F)c1 (stereo partly drawn) [Example 15-(b), (3S)-3-(3-chloro-4-fluoro-5-(trifluoromethyl)phenyl)-3-(2-(4-((5-fluoro-1,4,5,6-tetrahydropyrimidin-2-yl)amino)-1H-indazole-6-carboxamido)acetamido)propanoic acid]	< 10	> 1
